Each structure is given as a SMILES string. Converted amounts (≈) assume the structure as drawn. “And” between values parts separate entries of the source, which are not always exact repeats. Equal values may be shown once.

From patent US20230132133A1, “METHODS AND COMPOSITIONS FOR THE TREATMENT OF C. DIFFICILE” (priority 2018, published 2023) come the findings set out here.

In test [1] the test system is B. amyloliquefaciens ART24. As to the kind of experiment: Antibiotic MIC following EFSA testing recommendations on lyophilized ART24 lots and cell banks. It counts as cell-based, Bacillus amyloliquefaciens. The settings on record: for MIC: Bacillus amyloliquefaciens. The source says:
The minimum inhibitory concentration (MIC) of the listed antimicrobials is expressed as µg/mL.

In test [2] the test system is B. amyloliquefaciens ART12. Put plainly: MIC of metronidazole and fidaxomicin, CLSI standard method. The conditions noted are these: Bacillus amyloliquefaciens, triplicates, 16 hours, read-out: MIC against ART12. The format is cell-based. Here is the method: (§1) Briefly, minimum inhibitory concentration assays were carried out in triplicate using 96-well plates (Sarstedt). Two-fold serial dilutions from an initial concentration of 512 µg/mL of each antibiotic were carried out in BHI broth (Merck). An overnight of the target strain was subcultured and incubated to an OD600 nm of 0.5 before being diluted to give a final inoculum of 10^5 cfu/ml in 200 µL and added to the antibiotic preparations. The plates were incubated at an appropriate temperature and inspected after 16 hours. The MIC was determined as the lowest concentration at which no growth was visible.

The test system of test [3] is B. amyloliquefaciens ART24. The description is as above. It counts as cell-based. The conditions noted are these: Bacillus amyloliquefaciens, triplicates, 16 hours, read-out: MIC against ART24. Here is the method:
as §1

In test [4] the test system is B. amyloliquefaciens ART4. Described as above. The format is cell-based. The conditions noted are these: Bacillus amyloliquefaciens, triplicates, 16 hours, read-out: MIC against ART4. Here is the method:
as §1

The subject of test [5] is B. amyloliquefaciens ART12. Put plainly: Antibiotic MIC, VetMIC Lact-1 & Lact-2 panels. It counts as cell-based, Bacillus amyloliquefaciens. The conditions noted are these: Bacillus amyloliquefaciens, ART12; 24 hr at 37° C. Here is the method:
(§2) The wells of the prefabricated 96-well plates were filled with 100 μL of the final suspension. The plates were sealed with an […], Sigma Aldrich) sealing film (to facilitate growth of the aerobic Bacillus strains. The plates were then incubated for 24 hr at 37° C. The results are recorded after 24 hours as the lowest concentration of the antibiotic to inhibit visible growth. The prefabricated panels […], Uppsala, Sweden) comprising the antibiotics ampicillin, vancomycin, gentamicin, kanamycin, streptomycin, erythromycin, clindamycin, tetracycline, chloramphenicol, neomycin, penicillin, quinupristin-dalfopristin, linezolid, trimethoprim, ciprofloxacin and rifampicin were used.

In test [6] the test system is B. amyloliquefaciens ART24. As to the kind of experiment: Antibiotic MIC, VetMIC Lact-1 & Lact-2 panels. It counts as cell-based, Bacillus amyloliquefaciens. The settings on record: Bacillus amyloliquefaciens, ART24; 24 hr at 37° C. The protocol:
as §2

Test [7] relates to B. amyloliquefaciens ART4. As to the kind of experiment: Antibiotic MIC, VetMIC Lact-1 & Lact-2 panels. The settings on record: Bacillus amyloliquefaciens, ART4; 24 hr at 37° C. The format is cell-based, Bacillus amyloliquefaciens. The protocol:
as §2

A further test has as its system C. difficile ATCC 43255. Put plainly: C. difficile mouse model, in vivo efficacy. Details: species or system Mice (C57BL/6J female). The settings on record: to study day 10 post-C. difficile infection. Here is the method: C. difficile mouse model. The mouse model of C. difficile infection was prepared as described elsewhere (Chen, X, et al., Gastroenterology 135:1984-1992 (2008)).
Mice (C57BL/6J female) were divided prospectively into 4 treatment groups of 15 animals (Table 7) and housed 5 animals per cage.
Mice received an antibiotic cocktail for eight consecutive days in their drinking water starting 13 days prior to C. difficile infection (study day 0). The antibiotic cocktail was changed every third day with freshly prepared antibiotics provided. The antibiotic cocktail consisted of 1% glucose, kanamycin (0.5 mg/mL), gentamicin (0.044 mg/mL), colistin (1062.5 U/mL), metronidazole (0.269 mg/mL), ciprofloxacin (0.156 mg/mL), ampicillin (0.1 mg/mL) and vancomycin (0.056 mg/mL). Five days prior to C. difficile infection, the antibiotic water was removed. Animals were placed in clean cages and sterile drinking water provided to the mice. Three days prior to infection mice were administered Clindamycin at 10 mg/kg via oral gavage in a volume of 10 mL/kg.
The strain was applied to TSA agar plates from frozen stocks (3 days prior to dosing) and cultured overnight at 37° C. […]
Mice were observed daily through the course of the study. […] Clinical observations were also performed with adverse observations recorded when appropriate. […]

Setting [8] is: ART24, source CO-33-12A2, read-out: MIC for ART24.
The mark [9] stands for this setting: ART24, source CO-33 ART 24 BHI, read-out: MIC for ART24.
[10] abbreviates: ART24, source CO-33 ART 024 S, read-out: MIC for ART24.
Setting [11] is: ART24, source YD CO-33-10A2, read-out: MIC for ART24.

`Cc1ncc([N+](=O)[O-])n1CCO` [Metronidazole, metronidazole]: the minimal inhibitory concentration (MIC) – broadly, the smallest concentration in the dilution series that meets the test's criterion for growth inhibition – is 64 µg/mL (≈ 374 µM) in test [1] (ART24, anaerobic, source CO-33-12A2, read-out: MIC for ART24); 64 µg/mL (≈ 374 µM) in test [1] (ART24, anaerobic, source CO-33 ART 24 BHI, read-out: MIC for ART24); 64 µg/mL (≈ 374 µM) in test [1] (ART24, anaerobic, source CO-33 ART 024 S, read-out: MIC for ART24); 64 µg/mL (≈ 374 µM) in test [1] (ART24, anaerobic, source YD CO-33-10A2, read-out: MIC for ART24); more than 64 µg/mL in test [1] (setting [8]); more than 64 µg/mL in test [1] (setting [9]). Also, the MIC was more than 64 µg/mL in test [1] (setting [10]); more than 64 µg/mL in test [1] (setting [11]); 64 µg/mL in test [2]; 128 µg/mL in test [3]; 128 µg/mL in test [4].

On to `CN[C@H](CC(C)C)C(=O)N[C@H]1C(=O)N[C@@H](CC(N)=O)C(=O)N[C@H]2C(=O)N[C@H]3C(=O)N[C@H](C(=O)N[C@H](C(=O)O)c4cc(O)cc(O)c4-c4cc3ccc4O)[C@H](O)c3ccc(c(Cl)c3)Oc3cc2cc(c3O[C@@H]2O[C@H](CO)[C@@H](O)[C@H](O)[C@H]2O[C@H]2C[C@](C)(N)[C@H](O)[C@H](C)O2)Oc2ccc(cc2Cl)[C@H]1O` [Vancomycin], for which the MIC in test [5] is 0.5 µg/mL (≈ 0.345 µM); in test [6] it was 0.5 to 1 µg/mL (≈ 0.345 to 0.69 µM); in test [7] it was 0.5 µg/mL (≈ 0.345 µM); in test [1] (ART24, read-out: MIC for ART24), 0.5 µg/mL (≈ 0.345 µM). Moreover, in test [1], the “MIC interpretation for ART24” value is 0.5 (S) and ≤0.25 (S). In addition, in the test on C. difficile ATCC 43255, the “animals survived (survivors/group)” value is 15/15.

In the case of `CCc1c(Cl)c(O)c(Cl)c(O)c1C(=O)O[C@H]1[C@H](O)[C@H](OC)[C@H](OC/C2=C\C=C\C[C@H](O)/C(C)=C/[C@H](CC)[C@@H](O[C@@H]3OC(C)(C)[C@@H](OC(=O)C(C)C)[C@H](O)[C@@H]3O)/C(C)=C/C(C)=C/C[C@@H]([C@@H](C)O)OC2=O)O[C@@H]1C` [Fidaxomicin, fidaxomicin], the minimum inhibitory concentration (MIC) in test [1] (setting [8]) is 4 µg/mL (≈ 3.78 µM); in test [1] (setting [9]), 4 µg/mL (≈ 3.78 µM); in test [1] (setting [10]), 4 µg/mL (≈ 3.78 µM); in test [1] (setting [11]), 2 µg/mL (≈ 1.89 µM); in test [2] it was less than 1 µg/mL; in test [3], 2 µg/mL. The MIC in test [4] was less than 1 µg/mL.
